Patent publication US11578140B2, “Immunoassay for mitragynine” (MICROGENICS CORPORATION, priority 2019, dated 2023)

System: anti-mitragynine antibody
Experiment: Cross reactivity of the anti-mitragynine antibody against kratom alkaloids and mitragynine metabolites
Format: binding, Balb/c mice
Conditions: for Cross Reactivity (%): tested concentration (ng/mL): Mitragynine 50, 7-hydroxy mitragynine 35,000-40,000, Paynantheine 25,000-35,000, Speciociliatine 25,000-35,000, 16-carboxy mitragynine 300-360, 9-Hydroxycorynantheidine 3,125-4,000; for cross reactivity (in words): metabolites of mitragynine, antibody derived from the BSA immunogen
Protocol: In a particular embodiment of the invention, the BSA-containing immunogen of Example 4 (Compound 6) was administered to Balb/c mice in a series of injections as is routine in the art. Alternatively, other mammals are suitable for antibody production. Screening of anti-serum samples taken from the immunized mice was performed to assess antibody titer and to evaluate the ability of antibodies in the samples to bind to enzyme-donor conjugate described in Example 6.
In particular, β-galactosidase enzyme donor polypeptide fragment combines with a β-galactosidase enzyme acceptor fragment to form active β-galactosidase enzyme. The active enzyme complex is capable of transforming a substrate into a product that is differentially detectable. Usually, the product is a different color from the substrate and is quantified using spectrophotometric methods. […] Therefore, the enzyme-catalyzed reaction rate is directly proportional to the concentration of target analyte present in the specimen tested. A preferred β-galactosidase enzyme donor is ED28, a polypeptide containing residues 6-45 of β-galactosidase, with cysteines at positions 1 and 46 (relative to the numbering of the original β-galactosidase fragment).
The cross reactivity of the anti-mitragynine antibody derived from the immunogen described above was tested against certain kratom alkaloids and metabolites of mitragynine shown below.

| SMILES | Cross Reactivity (%) | cross reactivity (in words) |
| --- | --- | --- |
| CC[C@@H]1CN2CCc3c([nH]c4cccc(OC)c34)[C@@H]2C[C@@H]1/C(=C\OC)C(=O)OC [Mitragynine, methyl (E)-2-[(2S,3S,12bS)-3-ethyl-8-methoxy-1,2,3,4,6,7,12,12b-octahydroindolo[2,3-a]quinolizin-2-yl]-3-methoxyprop-2-enoate] | 100% | – |
| C=C[C@H]1CN2CCc3c([nH]c4cccc(OC)c34)[C@@H]2C[C@@H]1/C(=C\OC)C(=O)OC [Paynantheine] | ≤0.2% | – |
| CC[C@@H]1CN2CC[C@@]3(O)C(=Nc4cccc(OC)c43)[C@@H]2C[C@@H]1/C(=C\OC)C(=O)OC [7-hydroxy mitragynine] | ≤0.2% | – |
| CC[C@@H]1CN2CCc3c([nH]c4cccc(OC)c34)[C@@H]2C[C@@H]1/C(=C\OC)C(=O)O [16-carboxy mitragynine] | 13.9-16.7% | low levels of cross reactivity |
| CC[C@@H]1CN2CCc3c([nH]c4cccc(O)c34)[C@@H]2C[C@@H]1/C(=C\OC)C(=O)OC [9-Hydroxycorynantheidine, (E)-2-[(25,35,12b5)-3-ethyl-8-hydroxy-1,2,3,4,6,7,12,12b-octahydroindolo [2,3-a]quinozilizin-2-yl]-3-methoxy propenoic acid methyl ester] | 1.25-1.6% | low levels of cross reactivity |
| CC[C@@H]1CN2CCc3c([nH]c4cccc(OC)c34)[C@H]2C[C@@H]1/C(=C\OC)C(=O)OC [Speciociliatine] | ≤0.2% | – |
